# From patent US20240099996A1, “METHODS FOR TREATING CANCER” (Radius Pharmaceuticals, Inc., priority 2015, published 2024)
# Counter-ions that a name gives are not always drawn.
# Experiment: Phase 1 dose escalation study in healthy post-menopausal women, treatment related AEs
# Assay type: in vivo
# Procedure: The subjects were 40-75 years old with BMI of 18.0-30 kg/m^2. Subjects having evidence of clinically relevant pathology, increased risk of stroke or of history venous thromboembolic events, or use of concomitant medication less than 14 days prior to admission to clinical research center (paracetamol allowed up to 3 days prior) were excluded. Dosing
# The subjects were treated with placebo or at least one dose p.o., q.d. after a light breakfast for 7 days at dose levels of 200 mg, 500 mg, 750 mg and 1000 mg, respectively.
structure (smiles),measurement,setting,value
"CCNCCc1ccc(CN(CC)c2cc(OC)ccc2[C@@H]2CCc3cc(O)ccc3C2)cc1 [RAD1901, (6R)-6-(2-(N-(4-(2-(ethylamino)ethyl)benzyl)-N-ethylamino)-4-methoxyphenyl)-5,6,7,8-tetrahydronaphthalen-2-ol dihydrochloride]",Nausea Gr2,"750 mg, N = 8",1 (13) n(%)
same,Nausea Gr3,"750 mg, N = 8",0 n(%)
same,Odynophagia Gr1,"750 mg, N = 8",0 n(%)
same,Odynophagia Gr2,"750 mg, N = 8",0 n(%)
same,Odynophagia Gr3,"750 mg, N = 8",0 n(%)
same,Oesophageal pain Gr1,"750 mg, N = 8",1 (13) n(%)
same,Oesophageal pain Gr2,"750 mg, N = 8",0 n(%)
same,Oesophageal pain Gr3,"750 mg, N = 8",0 n(%)
same,Salivary hypersecretion Gr1,"750 mg, N = 8",2 (25) n(%)
same,Salivary hypersecretion Gr2,"750 mg, N = 8",0 n(%)
same,Salivary hypersecretion Gr3,"750 mg, N = 8",0 n(%)
same,Sensation of a foreign body Gr1,"750 mg, N = 8",0 n(%)
same,Sensation of a foreign body Gr2,"750 mg, N = 8",0 n(%)
same,Sensation of a foreign body Gr3,"750 mg, N = 8",0 n(%)
same,Vomiting Gr1,"750 mg, N = 8",0 n(%)
same,Vomiting Gr2,"750 mg, N = 8",2 (25) n(%)
same,Vomiting Gr3,"750 mg, N = 8",0 n(%)
same,Abdominal discomfort Gr1,"1000 mg, N = 7",0 n(%)
same,Abdominal discomfort Gr2,"1000 mg, N = 7",0 n(%)
same,Abdominal discomfort Gr3,"1000 mg, N = 7",0 n(%)
same,Abdominal distension Gr1,"1000 mg, N = 7",2 (29) n(%)
same,Abdominal distension Gr2,"1000 mg, N = 7",0 n(%)
same,Abdominal distension Gr3,"1000 mg, N = 7",0 n(%)
same,Abdominal pain Gr1,"1000 mg, N = 7",1 (14) n(%)
same,Abdominal pain Gr2,"1000 mg, N = 7",1 (14) n(%)
same,Abdominal pain Gr3,"1000 mg, N = 7",0 n(%)
same,Diarrhoea Gr1,"1000 mg, N = 7",3 (43) n(%)
same,Diarrhoea Gr2,"1000 mg, N = 7",1 (14) n(%)
same,Diarrhoea Gr3,"1000 mg, N = 7",0 n(%)
same,Dizziness Gr1,"1000 mg, N = 7",1 (14) n(%)
same,Dizziness Gr2,"1000 mg, N = 7",0 n(%)
same,Dizziness Gr3,"1000 mg, N = 7",0 n(%)
same,Dyspepsia Gr1,"1000 mg, N = 7",1 (14) n(%)
same,Dyspepsia Gr2,"1000 mg, N = 7",1 (14) n(%)
same,Dyspepsia Gr3,"1000 mg, N = 7",0 n(%)
same,Dysphagia Gr1,"1000 mg, N = 7",0 n(%)
same,Dysphagia Gr2,"1000 mg, N = 7",0 n(%)
same,Dysphagia Gr3,"1000 mg, N = 7",0 n(%)
same,Flatulance Gr1,"1000 mg, N = 7",0 n(%)
same,Flatulance Gr2,"1000 mg, N = 7",0 n(%)
same,Flatulance Gr3,"1000 mg, N = 7",0 n(%)
same,Headache Gr1,"1000 mg, N = 7",2 (29) n(%)
same,Headache Gr2,"1000 mg, N = 7",0 n(%)
same,Headache Gr3,"1000 mg, N = 7",0 n(%)
same,Hiccups Gr1,"1000 mg, N = 7",2 (29) n(%)
same,Hiccups Gr2,"1000 mg, N = 7",0 n(%)
same,Hiccups Gr3,"1000 mg, N = 7",0 n(%)
same,Hot flush Gr1,"1000 mg, N = 7",1 (14) n(%)
same,Hot flush Gr2,"1000 mg, N = 7",0 n(%)
same,Hot flush Gr3,"1000 mg, N = 7",0 n(%)
same,Myalgia Gr1,"1000 mg, N = 7",0 n(%)
same,Myalgia Gr2,"1000 mg, N = 7",0 n(%)
same,Myalgia Gr3,"1000 mg, N = 7",0 n(%)
same,Nausea Gr1,"1000 mg, N = 7",4 (57) n(%)
same,Nausea Gr2,"1000 mg, N = 7",2 (29) n(%)
same,Nausea Gr3,"1000 mg, N = 7",0 n(%)
same,Odynophagia Gr1,"1000 mg, N = 7",1 (14) n(%)
same,Odynophagia Gr2,"1000 mg, N = 7",1 (14) n(%)
same,Odynophagia Gr3,"1000 mg, N = 7",0 n(%)
same,Oesophageal pain Gr1,"1000 mg, N = 7",1 (14) n(%)
same,Oesophageal pain Gr2,"1000 mg, N = 7",1 (14) n(%)
same,Oesophageal pain Gr3,"1000 mg, N = 7",1 (14) n(%)
same,Salivary hypersecretion Gr1,"1000 mg, N = 7",2 (29) n(%)
same,Salivary hypersecretion Gr2,"1000 mg, N = 7",0 n(%)
same,Salivary hypersecretion Gr3,"1000 mg, N = 7",0 n(%)
same,Sensation of a foreign body Gr1,"1000 mg, N = 7",4 (57) n(%)
same,Sensation of a foreign body Gr2,"1000 mg, N = 7",0 n(%)
same,Sensation of a foreign body Gr3,"1000 mg, N = 7",0 n(%)
same,Vomiting Gr1,"1000 mg, N = 7",0 n(%)
same,Vomiting Gr2,"1000 mg, N = 7",3 (43) n(%)
same,Vomiting Gr3,"1000 mg, N = 7",0 n(%)
same,dose limiting toxicities (DLT),"200-1000 mg p.o., q.d., 7 days",No dose limiting toxicites (DLT) were observed
same,maximum tolerated dose (MTD),"200-1000 mg p.o., q.d., 7 days",not established
same,Abdominal discomfort Gr1,"Total Active, N = 44",4 n(%)
same,Abdominal discomfort Gr2,"Total Active, N = 44",1 (2) n(%)
same,Abdominal discomfort Gr3,"Total Active, N = 44",0 n(%)
same,Abdominal distension Gr1,"Total Active, N = 44",5 n(%)
same,Abdominal distension Gr2,"Total Active, N = 44",1 (2) n(%)
same,Abdominal distension Gr3,"Total Active, N = 44",0 n(%)
same,Abdominal pain Gr1,"Total Active, N = 44",7 n(%)
same,Abdominal pain Gr2,"Total Active, N = 44",3 (7) n(%)
same,Abdominal pain Gr3,"Total Active, N = 44",0 n(%)
same,Diarrhoea Gr1,"Total Active, N = 44",6 n(%)
same,Diarrhoea Gr2,"Total Active, N = 44",1 (2) n(%)
same,Diarrhoea Gr3,"Total Active, N = 44",0 n(%)
same,Dizziness Gr1,"Total Active, N = 44",5 n(%)
same,Dizziness Gr2,"Total Active, N = 44",0 n(%)
same,Dizziness Gr3,"Total Active, N = 44",0 n(%)
same,Dyspepsia Gr1,"Total Active, N = 44",13 n(%)
same,Dyspepsia Gr2,"Total Active, N = 44",3 (7) n(%)
same,Dyspepsia Gr3,"Total Active, N = 44",0 n(%)
same,Dysphagia Gr1,"Total Active, N = 44",4 n(%)
same,Dysphagia Gr2,"Total Active, N = 44",3 (7) n(%)
same,Dysphagia Gr3,"Total Active, N = 44",0 n(%)
same,Flatulance Gr1,"Total Active, N = 44",5 n(%)
same,Flatulance Gr2,"Total Active, N = 44",0 n(%)
same,Flatulance Gr3,"Total Active, N = 44",0 n(%)
same,Headache Gr1,"Total Active, N = 44",9 n(%)
same,Headache Gr2,"Total Active, N = 44",1 (2) n(%)
same,Headache Gr3,"Total Active, N = 44",0 n(%)
same,Hiccups Gr1,"Total Active, N = 44",9 n(%)
same,Hiccups Gr2,"Total Active, N = 44",0 n(%)
same,Hiccups Gr3,"Total Active, N = 44",0 n(%)
same,Hot flush Gr1,"Total Active, N = 44",11 n(%)
same,Hot flush Gr2,"Total Active, N = 44",0 n(%)
same,Hot flush Gr3,"Total Active, N = 44",0 n(%)
same,Myalgia Gr1,"Total Active, N = 44",3 n(%)
same,Myalgia Gr2,"Total Active, N = 44",2 (5) n(%)
same,Myalgia Gr3,"Total Active, N = 44",0 n(%)
same,Nausea Gr1,"Total Active, N = 44",14 n(%)
same,Nausea Gr2,"Total Active, N = 44",5 (11) n(%)
same,Nausea Gr3,"Total Active, N = 44",0 n(%)
same,Odynophagia Gr1,"Total Active, N = 44",4 n(%)
same,Odynophagia Gr2,"Total Active, N = 44",2 (5) n(%)
same,Odynophagia Gr3,"Total Active, N = 44",0 n(%)
same,Oesophageal pain Gr1,"Total Active, N = 44",3 n(%)
same,Oesophageal pain Gr2,"Total Active, N = 44",6 (14) n(%)
same,Oesophageal pain Gr3,"Total Active, N = 44",1 (2) n(%)
same,Salivary hypersecretion Gr1,"Total Active, N = 44",8 n(%)
same,Salivary hypersecretion Gr2,"Total Active, N = 44",0 n(%)
same,Salivary hypersecretion Gr3,"Total Active, N = 44",0 n(%)
same,Sensation of a foreign body Gr1,"Total Active, N = 44",7 n(%)
same,Sensation of a foreign body Gr2,"Total Active, N = 44",0 n(%)
same,Sensation of a foreign body Gr3,"Total Active, N = 44",0 n(%)
same,Vomiting Gr1,"Total Active, N = 44",3 n(%)
same,Vomiting Gr2,"Total Active, N = 44",10 (23) n(%)
same,Vomiting Gr3,"Total Active, N = 44",1 (2) n(%)
same,Abdominal discomfort All,"Total TEAE, N = 44",5 n(%)
same,Abdominal distension All,"Total TEAE, N = 44",6 n(%)
same,Abdominal pain All,"Total TEAE, N = 44",10 n(%)
same,Diarrhoea All,"Total TEAE, N = 44",7 n(%)
same,Dizziness All,"Total TEAE, N = 44",5 n(%)
same,Dyspepsia All,"Total TEAE, N = 44",16 n(%)
same,Dysphagia All,"Total TEAE, N = 44",7 n(%)
same,Flatulance All,"Total TEAE, N = 44",5 n(%)
same,Headache All,"Total TEAE, N = 44",10 n(%)
same,Hiccups All,"Total TEAE, N = 44",9 n(%)
same,Hot flush All,"Total TEAE, N = 44",11 n(%)
same,Myalgia All,"Total TEAE, N = 44",5 n(%)
same,Nausea All,"Total TEAE, N = 44",19 n(%)
same,Odynophagia All,"Total TEAE, N = 44",6 n(%)
same,Oesophageal pain All,"Total TEAE, N = 44",10 n(%)
same,Salivary hypersecretion All,"Total TEAE, N = 44",8 n(%)
same,Sensation of a foreign body All,"Total TEAE, N = 44",7 n(%)
same,Vomiting All,"Total TEAE, N = 44",14 n(%)
